Reference: patent US20100285145A1, “GPR 119 MODULATORS” (PFIZER INC, priority 2009, published 2010)
Several values for one entry are separate records, joined by “and”; a condition that tells them apart may be missing. Identical values can stand only once.

How the values were obtained:
Assay type in all cases: cell-based
human GPR119 [1] = biological target: T1, human GPR119 (Homo sapiens, UniProt Q8TDV5); assay: β-Arrestin PathHunter assay (U2OS hGPR119 β-arrestin cells); settings: for EC50: U2OS hGPR119 β-arrestin cells, 90 min, each line a separate determination, read-out: Human B-arrestin Functional EC50; for Emax: U2OS, read-out: Intrinsic Activity (Human B-arrestin)
T1 sequence (Q8TDV5 1-335): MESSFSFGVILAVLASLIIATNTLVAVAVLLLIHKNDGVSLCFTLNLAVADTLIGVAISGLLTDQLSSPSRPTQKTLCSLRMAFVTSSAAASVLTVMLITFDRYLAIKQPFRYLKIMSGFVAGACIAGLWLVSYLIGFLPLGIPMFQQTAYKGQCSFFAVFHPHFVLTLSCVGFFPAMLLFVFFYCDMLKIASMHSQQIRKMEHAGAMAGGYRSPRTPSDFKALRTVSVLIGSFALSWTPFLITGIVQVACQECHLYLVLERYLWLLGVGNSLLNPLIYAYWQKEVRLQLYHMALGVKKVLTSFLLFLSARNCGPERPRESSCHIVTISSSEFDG
Method: GPR119 agonist activity was also determined with a cell-based assay utilizing DiscoverX PathHunter β-arrestin cell assay technology and their U2OS hGPR119 β-arrestin cell line (DiscoverX Cat # 93-0356C3). In this assay, agonist activation is determined by measuring agonist-induced interaction of β-arrestin with activated GPR119. A small, 42 amino acid enzyme fragment, called ProLink was appended to the C-terminus of GPR119. Arrestin was fused to the larger enzyme fragment, termed EA (Enzyme Acceptor). Activation of GPR119 stimulates binding of arrestin and forces the complementation of the two enzyme fragments, resulting in formation of a functional β-galactosidase enzyme capable of hydrolyzing substrate and generating a chemiluminescent signal.
Specifically, U2OS hGPR119 β-arrestin cells (DiscoverX 1×10^7/mL) are removed from cryopreservation and diluted in growth medium (Minimum essential medium (MEM; Gibco Cat # 11095-080), 10% heat inactivated fetal bovine serum (HIFBS; Sigma Cat # F4135-100), […] sodium pyruvate (Sigma Cat # S8636), 500 microg/mL G418 (Sigma Cat # G8168) and 250 microg/mL Hygromycin B (Invitrogen Cat # 10687-010). The cell concentration was adjusted to 1.66×10^5 cells/mL and 30 mLs of this suspension was added to a T-175 flask and incubated at 37 degrees Celsius in a humidified environment in 5% carbon dioxide. After 24 hours, the cells were removed from the T-175 flask with enzyme-free cell dissociation buffer (Gibco cat #13151-014), centrifuged at 800×g and then re-suspended in plating medium (Opti-MEM I (Invitrogen/BRL Cat # 31985-070) and 2% charcoal dextran treated fetal bovine serum (CD serum; HyClone Cat # SH30068.03).
The cell concentration was adjusted to 2.5×10^5 cells/mL with plating medium and 20 microliters of this cell suspension (5000 cells) was added to each well of a white Greiner 384-well low volume assay plate (VWR cat #82051-458) and the plates were incubated at 37 degrees Celsius in a humidified environment in 5% carbon dioxide.
After 16 hours (overnight) the assay plates were removed from the incubator and varying concentrations of each compound to be tested (diluted in assay buffer (1×HBSS+CaCl2+MgCl2 (Gibco Cat # 14025-092), 20 mM HEPES pH 7.0 (Gibco Cat # 15630-080) and 0.1% BSA (Sigma Cat # A9576)) were added to the assay plate wells in a volume of 5 microliters (final DMSO concentration was 0.5%). After a 90 minute incubation at 37 degrees Celsius in a humidified environment in 5% carbon dioxide, 12 microliters of Galacton Star β-galactosidase substrate (PathHunter Detection Kit (DiscoveRx Cat # 93-0001); prepared as described in the manufacturers assay protocol) was added to each well of the assay plate. The plates were incubated at room temperature and after 60 minutes, changes in the luminescence were read with an Envision 2104 multilabel plate reader at 0.1 seconds per well. EC50 determinations were made from an agonist-response curves analyzed with a curve fitting program using a 4-parameter logistic dose response equation.

human GPR119 [2] = biological target: T1, human GPR119; assay: cAMP HTRF functional assay (hGPR119 HEK-CRE beta-lactamase cells); parameters: host or cells: HEK293-CRE beta-lactamase; settings: for EC50: HTRF cAMP, 30 min, 400 microM IBMX, each line a separate determination; for Intrinsic Activity (Human cAMP) / Emax: percent of maximal activity relative to standard GPR119 agonist at 10 micromolar; for Emax: read-out: Intrinsic Activity (Human cAMP)
Method: GPR119 agonist activity was also determined with a cell-based assay utilizing an HTRF (Homogeneous Time-Resolved Fluorescence) cAMP detection kit (cAMP dynamic 2 Assay Kit; Cis Bio cat #62AM4PEC) that measures cAMP levels in the cell. The method is a competitive immunoassay between native cAMP produced by the cells and the cAMP labeled with the dye d2. The tracer binding is visualized by a Mab anti-cAMP labeled with Cryptate. The specific signal (i.e. energy transfer) is inversely proportional to the concentration of cAMP in either standard or sample.
Specifically, hGPR119 HEK-CRE beta-lactamase cells (Invitrogen 2.5×10^7/mL; the same cell line used in the beta-lactamase assay described above) are removed from cryopreservation and diluted in growth medium (Dulbecco's modified Eagle medium high glucose (DMEM; Gibco Cat # 11995-065), 1% charcoal dextran treated fetal bovine serum (CD serum; HyClone Cat # SH30068.03), 1×MEM Nonessential amino acids (Gibco Cat # 15630-080) and 25 mM HEPES pH 7.0 (Gibco Cat # 15630-080)). The cell concentration was adjusted to 1.5×10^5 cells/mL and 30 mLs of this suspension was added to a T-175 flask and incubated at 37 degrees Celsius in a humidified environment in 5% carbon dioxide. After 16 hours (overnight), the cells were removed from the T-175 flask (by rapping the side of the flask), centrifuged at 800×g and then re-suspended in assay medium (1×HBSS+CaCl2+MgCl2 (Gibco Cat # 14025-092) and 25 mM HEPES pH 7.0 (Gibco Cat # 15630-080)). The cell concentration was adjusted to 6.25×10^5 cells/mL with assay medium and 8 μl of this cell suspension (5000 cells) was added to each well of a white Greiner 384-well, low-volume assay plate (VWR cat #82051-458).
Varying concentrations of each compound to be tested were diluted in assay buffer containing 3-isobutyl-1-methylxanthin (IBMX; Sigma cat #15879) and added to the assay plate wells in a volume of 2 microL (final IBMX concentration was 400 microM and final DMSO concentration was 0.58%). Following 30 minutes incubation at room temperature, 5 microL of labeled d2 cAMP and 5 microL of anti-cAMP antibody (both diluted 1:20 in cell lysis buffer; as described in the manufacturers assay protocol) were added to each well of the assay plate. The plates were then incubated at room temperature and after 60 minutes, changes in the HTRF signal were read with an Envision 2104 multilabel plate reader using excitation of 330 nm and emissions of 615 and 665 nm. Raw data were converted to nM cAMP by interpolation from a cAMP standard curve (as described in the manufacturer's assay protocol) and EC50 determinations were made from an agonist-response curves analyzed with a curve fitting program using a 4-parameter logistic dose response equation.

human GPR119 [3] = biological target: T1, human GPR119; assay: β-Lactamase reporter functional assay (hGPR119 HEK293-CRE beta-lactamase cells); parameters: host or cells: HEK293-CRE beta-lactamase; Emax: dose or concentration left out as unconfirmed; settings: for EC50: hGPR119 HEK293-CRE beta-lactamase cells, 16 h incubation, each line a separate determination, read-out: Human B-lactamase Functional EC50; for Intrinsic Activity (Human B-lactamase) / Emax: percent of maximal activity relative to standard GPR119 agonist at 10 micromolar; for Emax: read-out: Intrinsic Activity (Human B-lactamase)
Method: The assay for GPR119 agonists utilizes a cell-based (hGPR119 HEK293-CRE beta-lactamase) reporter construct where agonist activation of human GPR119 is coupled to beta-lactamase production via a cyclic AMP response element (CRE). GPR119 activity is then measured utilizing a FRET-enabled beta-lactamase substrate, CCF4-AM (Live Blazer FRET-B/G Loading kit, Invitrogen cat #K1027). Specifically, hGPR119-HEK-CRE-beta-lactamase cells (Invitrogen 2.5×10^7/mL) were removed from liquid nitrogen storage, and diluted in plating medium (Dulbecco's modified Eagle medium high glucose (DMEM; Gibco Cat # 11995-065), 10% heat inactivated fetal bovine serum (HIFBS; Sigma Cat # F4135), 1×MEM Nonessential amino acids (Gibco Cat # 15630-080), 25 mM HEPES pH 7.0 (Gibco Cat # 15630-080), 200 nM potassium clavulanate (Sigma Cat # P3494). The cell concentration was adjusted using cell plating medium and 50 microL of this cell suspension ([…]) was added into each well of a black, clear bottom, poly-d-lysine coated 384-well plate (Greiner Bio-One cat# 781946) and incubated at 37 degrees Celsius in a humidified environment containing 5% carbon dioxide. After 4 hours the plating medium was removed and replaced with 40 microL of assay medium (Assay medium is plating medium without potassium clavulanate and HIFBS). Varying concentrations of each compound to be tested was then added in a volume of 10 microL (final DMSO ≦0.5%) and the cells were incubated for 16 hours at 37 degrees Celsius in a humidified environment containing 5% carbon dioxide. Plates were removed from the incubator and allowed to equilibrate to room temperature for approximately 15 minutes. 10 microL of 6×CCF4/AM working dye solution (prepared according to instructions in the Live Blazer FRET-B/G Loading kit, Invitrogen cat #K1027) was added per well and incubated at room temperature for 2 hours in the dark. Fluorescence was measured on an EnVision fluorimetric plate reader, excitation 405 nm, emission 460 nm/535 nm. EC50 determinations were made from agonist-response curves analyzed with a curve fitting program using a 4-parameter logistic dose-response equation.

[4] = percent of maximal activity relative to standard GPR119 agonist at 10 micromolar

SMILES	EC50 (human GPR119 [1])	Emax (human GPR119 [1]; [4]) [%]	Intrinsic Activity (Human B-arrestin) (human GPR119 [1]; [4])	EC50 (human GPR119 [2])	EC50 (human GPR119 [3])	Intrinsic Activity (Human B-lactamase) (human GPR119 [3]) [%]	Emax (human GPR119 [3]) [%]	Emax (human GPR119 [2]) [%]	Intrinsic Activity (Human cAMP) (human GPR119 [2])
Cc1c(O[C@@H]2CCN(C(=O)OC3(C)CC3)C[C@@H]2F)ncnc1N1CCc2ncccc21 [Example 18, 1-Methylcyclopropyl (3S,4R)-4-{[6-(2,3-dihydro-1H-pyrrolo[3,2-b]pyridin-1-yl)-5-methylpyrimidin-4-yl]oxy}-3-fluoropiperidine-1-carboxylate]	2.57 nM and 19 nM and 4.94 nM and 20.6 nM	75.8	73.7% and 81% and 78.9%	18.8 nM and 18.4 nM and 15.9 nM and 12.7 nM and 14.6 nM					71.2% and 49.2% and 54.5% and 61.7% and 57.7%
CN(C)C(=O)c1ccc2c(n1)CCN2c1cc(OC2CCN(C(=O)OC3(C)CC3)CC2)ncn1 [Example 33, 1-Methylcyclopropyl 4-({6-[5-(dimethylcarbamoyl)-2,3-dihydro-1H-pyrrolo[3,2-b]pyridin-1-yl]pyrimidin-4-yl}oxy)piperidine-1-carboxylate]				1550 nM				154	
CC1(OC(=O)N2CC[C@H](Oc3cc(N4CCc5nc(C(N)=O)ccc54)ncn3)[C@H](F)C2)CC1 (racemic) [Example 32, 1-Methylcyclopropyl (3R,4S)-4-{[6-(5-carbamoyl-2,3-dihydro-1H-pyrrolo[3,2-b]pyridin-1-yl)pyrimidin-4-yl]oxy}-3-fluoropiperidine-1-carboxylate]				273 nM				147	
CC(C)OC(=O)N1CCC(Oc2cc(N3CCc4cc(S(C)(=O)=O)cnc43)ncn2)CC1 [Example 14, Isopropyl 4-({6-[5-(methylsulfonyl)-2,3-dihydro-1H-pyrrolo[2,3-b]pyridin-1-yl]pyrimidin-4-yl}oxy)piperidine-1-carboxylate]				> 10000 nM	7270 nM		98.1		
Cc1c(O[C@H]2CCN(C(=O)OC3(C)CC3)C[C@H]2F)ncnc1N1CCc2ncccc21 (racemic) [Example 19, 1-Methylcyclopropyl (3R,4S)-4-{[6-(2,3-dihydro-1H-pyrrolo[3,2-b]pyridin-1-yl)-5-methylpyrimidin-4-yl]oxy}-3-fluoropiperidine-1-carboxylate (racemic)]	6.31 nM	74		19.4 nM				57.9	

More lines, main results first:

EC50 (human GPR119 [1])	Emax (human GPR119 [1]; [4]) [%]	Intrinsic Activity (Human B-arrestin) (human GPR119 [1]; [4])	EC50 (human GPR119 [2])	EC50 (human GPR119 [3])	Intrinsic Activity (Human B-lactamase) (human GPR119 [3]) [%]	Emax (human GPR119 [3]) [%]	Emax (human GPR119 [2]) [%]	SMILES	Intrinsic Activity (Human cAMP) (human GPR119 [2])
				343 nM and 51.3 nM and 38.2 nM	106	98		CC(C)OC(=O)N1C[C@H]2COC[C@@H](C1)[C@@H]2Oc1cc(N2CCc3cc(S(C)(=O)=O)ccc32)ncn1 [Example 2, Isopropyl 9-syn-({6-[5-(methylsulfonyl)-2,3-dihydro-1H-indol-1-yl]pyrimidin-4-yl}oxy)-3-oxa-7-azabicyclo[3.3.1]nonane-7-carboxylate]	
				111 nM		100		Cc1c(O[C@H]2[C@@H]3COC[C@H]2CN(C(=O)OC(C)C)C3)ncnc1N1CCc2cc(S(C)(=O)=O)ccc21 [Example 24, Isopropyl (9-anti)-9-({5-methyl-6-[5-(methylsulfonyl)-2,3-d hydro-1H-indol-1-yl]pyrimidin-4-yl}oxy)-3-oxa-7-azabicyclo[3.3.1]nonane-7-carboxylate]	
			357 nM and 602 nM and 1750 nM and 1330 nM and 1800 nM and 3140 nM	11.5 nM and 12.5 nM	100	98.1		CC(C)OC(=O)N1C[C@H]2COC[C@@H](C1)[C@H]2Oc1ncnc(N2CCc3cc(S(C)(=O)=O)ccc32)c1C#N [Example 5]	
				9.16 nM		87.9	36.2	CC(C)OC(=O)N1C[C@H]2COC[C@@H](C1)[C@@H]2Oc1ncnc(N2CCc3cc(S(C)(=O)=O)ccc32)c1C#N [Example 4]	36% and 35.3%
